# Reference: patent US20140199277A1, “Methods of Treatment of Retinal Degeneration Diseases” (priority 2011, published 2014)
# Experiments:
# retinal neurons = assay: Damage-dependent cell fusion in vivo after intravitreal transplantation in R26Y eyes; set-up: species or system mouse; conditions: NMDA-damaged eyes of R26Y mice
# Description: (§1) Mice at the age of 3 months were anaesthetised by injection of ketamine: metomidine (80 mg/kg: 1.0 mg/kg, intraperitoneal (i.p.)). To induce retinal damage, the animals were treated intravitreally with 2 μl of 20 mM N-methyl-D-aspartate (NMDA) (total 40 nmol; Sigma) for 24 h [Timmers et al., Mol Vis 7, 131-137 (2001)]. Control eyes received 2 μl PBS. For the BrdU incorporation assays, the mice received intraperitoneal (i.p.) BrdU administration of 50 mg/kg body weight.
# Retinal stem and progenitor cells (RSPCs) were isolated from the ciliary margin of adult Cre mice as previously described [Sanges et al., Proc Natl Acad Sci USA 103, 17366-17371 (2006)]. […]
# (§2) Tissues were fixed by immersion in 4% paraformaldehyde overnight, and then embedded in OCT compound (Tissue-Tek). Horizontal serial sections of 10 μm thickness were processed for immunohistochemistry, and visualisation of Nanog-GFP and Rosa26-YFP fluorescence was performed by fluorescent microscopy.
# (§3) Percentages of GFP and YFP positive cells were evaluated counterstaining the tissue sections with DAPI (Vectashield, Vector Laboratories, Burlingame, Calif., USA), and they were photographed using either an Axioplan microscope (Zeiss) or a Leica laser confocal microscope system.
# The numbers of immunoreactive or of Nanog-GFP- and -YFP-positive cells within three different retinal areas (40× field) were counted in individual sections. […]
# Nanog-GFP transgene = assay: In-vivo reprogramming of retinal neurons after fusion, Nanog-GFP-puro mice; set-up: species or system mouse; conditions: for GFP-positive cells after transplantation of pretreated ESCs: ESCs pretreated before transplantation, NMDA-injured eyes
# Description: as §1
# (§4) The stem cells (SCs) were left non-treated or were pretreated with 100 ng/ml Wnt3a or 1 μM BIO, for 24 h, and finally 5×10^5 cells were injected intravitreally into the eyes of the anaesthetised mice. The mice were sacrificed by cervical dislocation, and their eyeballs were enucleated for histological analyses.
# as §2, §3
# (§5) The numbers of immunoreactive or of Nanog-GFP- and -YFP-positive cells within three different retinal areas (40× field) were counted in individual sections. A total of ten serial sections were examined for each eye, from at least three different mice. For statistical analysis, the data were expressed as means±SEM, as pooled from at least three independent experiments, each carried out in duplicate. The experiments were performed using at least three different mice. Differences were examined using the unpaired Student t-test.
# Nestin-CRE transgene [1] = assay: Endogenous BM cell fusion-mediated reprogramming induced by intravitreal BIO in Nestin-Cre mice with BM^R26Y; assay type: in vivo, mouse; conditions: 24 h
# Description: BM transplantation was conducted as previously reported with minor modifications. The BM of 4- to 6-week-old R26Y or Nestin-Cre recipient mice was reconstituted with BM cells from the tibias and femurs of RFP/CRE or R26Y transgenic mice respectively. BM cells (1×10^7 cells) were injected intravenously into the recipients 3 hours after irradiation with γ-rays (9 Gy). The eyes of the recipients were protected with lead shields to prevent radiation-induced damage (radiation retinopathy). Four weeks after transplantation, the peripheral blood of chimeric mice was extracted from the tail vein, and the reconstituted BM was assessed.
# For fluoresceine immunostaining, the primary antibodies used were: anti-Nanog (1:200, R&D), anti-Oct4 (1:100, AbCam), anti-Nestin (1:300, Abcam), anti-GATA4 (1:500, Abcam), anti-Otx2 (1:200, Abcam), anti-Noggin (1:200, Abcam), anti-Hand1 (1:400, Abcam), anti-Tuj-1 (1:100, Abcam), anti-Thy1.1 (1:100, Abcam), anti-syntaxin (1:50, Sigma), anti-glutamine synthetase (Sigma, 1:100) anti-Annexin V (1:200, Abcam), anti-Ki67 (Sigma, 1.100) and anti-BrdU (1:300, Sigma). The secondary antibodies used were: anti-mouse IgG and anti-rabbit IgG antibodies conjugated with Alexa Fluor 488, Alexa Fluor 546 or Alexa Fluor 633 (1:1000; Molecular Probes, Invitrogen).
# as §5
# β-catenin signalling = assay: Activation of β-catenin signalling in treated HSPCs (RT-PCR of Axin2, nuclear translocation of β-catenin); assay type: cell-based, mouse
# Excerpt: According to Treatment A, activation of the Wnt/β-catenin signalling pathway is, at least partially, provided by the implanted cells having their Wnt/β-catenin signalling pathway activated and being selected from the group consisting of a hematopoietic stem cell, a progenitor cell, and a mesenchymal stem cell. The subject to be treated may also have activated the Wnt/β-catenin signalling pathway after retinal damage or injury. In general, the Wnt/β-catenin signalling pathway is activated when the target genes are transcribed; by illustrative, activation of the Wnt/β-catenin signalling pathway may be confirmed by conventional techniques, for example, by analyzing the expression of the target genes, e.g., Axin2, by means known by the skilled person in the art to analyze the expression of genes, such as, for example, RT-PCR (reverse transcription-polymerase chain reaction), or by detection of β-catenin translocation in the nuclei of the cells by conventional techniques, such as, for example, by immunostaining, or by detecting the phosphorylation of Dishevelled or the phosphorylation of the LRP tail, etc.
# The stem cells (SCs) were left non-treated or were pretreated with 100 ng/ml Wnt3a or 1 μM BIO, for 24 h, and finally 5×10^5 cells were injected intravitreally into the eyes of the anaesthetised mice. […]
# neural progenitor cells = conditions: cited from earlier work; for reprogramming of neural precursor cells after cell fusion: periodic activation of the Wnt/β-catenin pathway in ESCs
# human GSK-3 = conditions: cited from earlier work
# Nestin-CRE transgene [2] = assay: In-vivo reprogramming of retinal neurons after fusion, Nestin-CRE mice; set-up: species or system mouse; conditions: injected immediately after NMDA, HSPCs after 24 h
# Description: as §1, §4, §2
# Percentages of GFP and YFP positive cells were evaluated counterstaining the tissue sections with DAPI (Vectashield, Vector Laboratories, Burlingame, Calif., USA), and they were photographed using either an Axioplan microscope (Zeiss) or a Leica laser confocal microscope system. […]
# β-catenin = β-catenin immunofluorescence in retinal sections of NMDA-treated eyes; assay type: in vivo, mouse; conditions: NMDA-damaged eyes
# Description: FIG. 12. Analysis of reprogramming of retinal neurons after fusion. (A) Immunofluorescence staining using an anti β-catenin antibody (red) was performed on sections from eyes treated either with NMDA, with both NMDA and DKK1 or untreated as control. The expression and nuclear accumulation of β-catenin in retinal cells detected in NMDA-damaged eyes (red arrows) is reduced after treatment with DKK1. Scale bar: 20 μm. (B) Schematic representation of in-vivo reprogramming experimental plan. Red-labelled SPCs either non-treated (control), or treated for 24 h with BIO were injected in NMDA-damaged or undamaged eyes of Nanog-GFP-Puro recipient mice. The expression of GFP in reprogrammed hybrids was analysed one day after injection. […] Nuclei were counterstained with DAPI.
# To assess the role of activation of the endogenous Wnt/β-catenin signalling pathway in the reprogramming of retinal neurons, in both of these mouse models, DKK1 was also injected immediately after NMDA injection; DKK1 is an inhibitor of the Wnt/β-catenin pathway [Osakada et al. (2007) cited supra, FIG. 12A]. HSPCs were transplanted after 24 h, and mice were sacrificed 24 h later.
molecule,measurement,setting,value
"O=C1Nc2cc(Br)ccc2/C1=C1/Nc2ccccc2/C1=N\O [BIO, 6-bromoindirubin-3'-oxime]","effect of pre-treatment on fusion efficiency of HSPCs, ESCs or RSPCs",retinal neurons,did not enhance the fusion efficiency
same,GFP-positive cells after transplantation of pretreated ESCs,Nanog-GFP transgene,strikingly increased
same,YFP-positive hybrids Annexin-V positive,Nestin-CRE transgene [1]; NMDA+BIO intravitreal,1%
same,YFP-positive hybrids positive for Ki67,Nestin-CRE transgene [1]; NMDA+BIO intravitreal,About 8%
same,YFP-positive hybrids positive for Nanog,Nestin-CRE transgene [1]; NMDA+BIO intravitreal,70%
same,YFP-positive hybrids positive for Oct4,Nestin-CRE transgene [1]; NMDA+BIO intravitreal,50%
same,YFP-positive cells in the gcl and inl,Nestin-CRE transgene [1]; intravitreal with NMDA,observed
same,β-catenin signalling in HSPCs,β-catenin signalling,activates β-catenin signalling
same,fusion efficiency of ESCs with neural progenitor cells,neural progenitor cells; in vitro,does not increase the fusion efficiency
same,reprogramming of neural precursor cells after cell fusion,neural progenitor cells,strongly enhances
"Nc1nc(NCCNc2ncc(-n3ccnc3)c(-c3ccc(Cl)cc3Cl)n2)ccc1[N+](=O)[O-] [CHIR 98014, 6-pyridinediamine, N6-[2-[[4-(2,4-dichlorophenyl)-5-(1H-imidazol-1-yl)-2-pyrimidinyl]amino]ethyl]-3-nitro-]",inhibition of human GSK-3,human GSK-3,potently
"Cc1c[nH]c(-c2cnc(NCCNc3ccc(C#N)cn3)nc2-c2ccc(Cl)cc2Cl)n1 [CHIR 99021, 6-{2-[4-(2,4-dichloro-phenyl)-5-(4-methyl-1H-imidazol-2-yl)-pyrimidin-2-ylamino]-ethylamino}-nicotinonitrile]",inhibition of human GSK-3,human GSK-3,potently
"Wnt3a: Wnt protein isoform, Wnt/β-catenin signalling pathway activator (protein, UniProt P56704 19-352, looked up) Protein Wnt-3a: SYPIWWSLAVGPQYSSLGSQPILCASIPGLVPKQLRFCRNYVEIMPSVAEGIKIGIQECQHQFRGRRWNCTTVHDSLAIFGPVLDKATRESAFVHAIASAGVAFAVTRSCAEGTAAICGCSSRHQGSPGKGWKWGGCSEDIEFGGMVSREFADARENRPDARSAMNRHNNEAGRQAIASHMHLKCKCHGLSGSCEVKTCWWSQPDFRAIGDFLKDKYDSASEMVVEKHRESRGWVETLRPRYTYFKVPTERDLVYYEASPNFCEPNPETGSFGTRDRTCNVSSHGIDGCDLLCCGRGHNARAERRREKCRCVFHWCCYVSCQECTRVYDVHTCK",GFP-positive cells after transplantation of pretreated ESCs,Nanog-GFP transgene,strikingly increased
same,reprogramming of neural precursor cells after cell fusion,neural progenitor cells,strongly enhances
"DKK1: an inhibitor of the Wnt/β-catenin pathway (protein, UniProt O94907 32-266, looked up) Dickkopf-related protein 1: TLNSVLNSNAIKNLPPPLGGAAGHPGSAVSAAPGILYPGGNKYQTIDNYQPYPCAEDEECGTDEYCASPTRGGDAGVQICLACRKRRKRCMRHAMCCPGNYCKNGICVSSDQNHFRGEIEETITESFGNDHSTLDGYSRRTTLSSKMYHTKGQEGSVCLRSSDCASGLCCARHFWSKICKPVLKEGQVCTKHRRKGSHGLEIFQRCYCGEGLSCRIQKDHHQASNSSRLHTCQRH",reprogramming of neuron-HSPC hybrids,Nestin-CRE transgene [2],almost completely blocked
same,reprogramming of neuron-HSPC hybrids,"Nanog-GFP transgene; injected immediately after NMDA, HSPCs after 24 h, Nanog-GFP-puro mice",almost completely blocked
same,expression and nuclear accumulation of β-catenin in retinal cells,β-catenin,reduced
